The values below are quoted from earlier work in patent US20240117436A1, “METHODS OF TREATING LIPEDEMA INCLUDING AKR1C2 AS A THERAPEUTIC TARGET” (MAGI EUREGIO SCS, priority 2021, published 2024).

Read-outs that look alike come from different tables or passages of the source.

The target in one data set is T1, AKR1C1 (Homo sapiens, UniProt Q04828).
T1 sequence (Q04828 1-323): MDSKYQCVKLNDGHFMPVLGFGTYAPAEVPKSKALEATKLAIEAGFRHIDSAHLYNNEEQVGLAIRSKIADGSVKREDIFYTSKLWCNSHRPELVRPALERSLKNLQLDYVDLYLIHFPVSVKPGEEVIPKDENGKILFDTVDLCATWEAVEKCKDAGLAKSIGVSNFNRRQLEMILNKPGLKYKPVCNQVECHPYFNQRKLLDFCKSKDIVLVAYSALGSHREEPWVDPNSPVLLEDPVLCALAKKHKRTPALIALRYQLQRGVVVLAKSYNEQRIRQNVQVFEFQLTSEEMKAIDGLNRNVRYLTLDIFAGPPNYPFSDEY
To be noted: for kind of AKR1C1 inhibition: literature statements in the text.

The next data set concerns the target AKR enzymes. To be noted: mid-nanomolar value; read-out: affinity of cofactor in binding AKR enzymes.
A further data set has as its system PGE2 and PGF2α levels. To be noted: literature.
The mark [1] stands for this setting: AKR1C1, known from the literature.

As for `COC1=C(OC)C(=O)c2ccccc2C1=O` [2,3-Dimethoxynaphthalene-1,4-Dione, 2,3-dimethoxynaphthalene-1,4-dione], the “Enzyme activity (inhibition/activation)” value on AKR1C1 (setting [1]) is listed as “activation”. Consider `O=C(O)c1cc(I)cc(I)c1O` [3,5-Diiodosalicylic Acid], for which, on AKR1C1 (setting [1]), the “Enzyme activity (inhibition/activation)” value is “inhibition”.

Regarding `O=c1c(O)c(-c2ccccc2)oc2cc(O)ccc12` [3,7-Dihydroxyflavone], at AKR1C1 (setting [1]), the “Enzyme activity (inhibition/activation)” value is on record as “inhibition”. Regarding `O=c1c(O)c(-c2ccccc2)oc2ccccc12` [3-Hydroxyflavone], the “Enzyme activity (inhibition/activation)” value on AKR1C1 (setting [1]) was “inhibition”. As to `O=C(O)c1cccc(Oc2ccccc2)c1` [3-Phenoxybenzoic Acid], on AKR1C1 (setting [1]), the “Enzyme activity (inhibition/activation)” value was “inhibition”.

In the case of `O=c1cc(-c2ccccc2)oc2cccc(O)c12` [5-Hydroxyflavone], at AKR1C1 (setting [1]), the “Enzyme activity (inhibition/activation)” value is recorded as “inhibition”.

For the compound `COc1cccc2oc(-c3ccccc3)cc(=O)c12` [5-Methoxyflavone], the “Enzyme activity (inhibition/activation)” value at AKR1C1 (setting [1]) is “inhibition”. Turning to `O=c1cc(-c2ccccc2)oc2cc(O)ccc12` [7-Hydroxyflavone], the “Enzyme activity (inhibition/activation)” value at AKR1C1 (setting [1]) is given as “inhibition”. Consider `C[C@H](O)[C@H]1CC[C@H]2[C@@H]3C=CC4=CC(=O)CC[C@@]4(C)[C@@H]3CC[C@]12C` [20α-Hydroxydydrogesterone], for which, at AKR1C1 (setting [1]), the “Enzyme activity (inhibition/activation)” value is on record as “inhibition”. With `CC(C)C1=CC2=CC[C@@H]3[C@](C)(CCC[C@@]3(C)C(=O)O)[C@H]2CC1` [Abietic Acid], at AKR1C1 (setting [1]), the “Enzyme activity (inhibition/activation)” value is given as “inhibition”. In the case of `CC(=O)Oc1ccccc1C(=O)O` [Acetylsalicylic Acid], the “Enzyme activity (inhibition/activation)” value at AKR1C1 (setting [1]) is recorded as “inhibition”.

On to `O=c1cc(-c2ccc(O)cc2)oc2cc(O)cc(O)c12` [Apigenin], for which, at AKR1C1 (setting [1]), the “Enzyme activity (inhibition/activation)” value is “inhibition”. Consider `COc1ccc(-c2coc3cc(O)cc(O)c3c2=O)cc1` [Biochanin A], for which the “Enzyme activity (inhibition/activation)” value at AKR1C1 (setting [1]) was “inhibition”.

Regarding `O=C1CN=C(c2ccccn2)c2cc(Br)ccc2N1` [Bromazepam], at AKR1C1, the “Enzyme activity (inhibition/activation)” value is listed as “inhibition”. For the compound `O=c1cc(-c2ccccc2)oc2cc(O)cc(O)c12` [Chrysin, 5,7-Dihydroxyflavone], on AKR1C1 (setting [1]), the “Enzyme activity (inhibition/activation)” value is listed as “inhibition”.

With `O=C1CN2CCOC2(c2ccccc2Cl)c2cc(Cl)ccc2N1` (centres unmarked) [Cloxazolam], on AKR1C1, the “Enzyme activity (inhibition/activation)” value is reported as “inhibition”. As to `O=c1ccc2ccccc2o1` [Coumarin], the “Enzyme activity (inhibition/activation)” value at AKR1C1 (setting [1]) was “inhibition”. Regarding `O=c1oc2cc(O)ccc2c2oc3cc(O)ccc3c12` [Coumestrol], the “Enzyme activity (inhibition/activation)” value at AKR1C1 (setting [1]) is listed as “inhibition”.

For `O=C1CCCC1` [Cyclopentanone], the “Enzyme activity (inhibition/activation)” value at AKR1C1 (setting [1]) is recorded as “inhibition”. Take `O=c1c(-c2ccc(O)cc2)coc2cc(O)ccc12` [Daidzein]: the “Enzyme activity (inhibition/activation)” value at AKR1C1 (setting [1]) is given as “inhibition”. In the case of `CN1C(=O)CN=C(c2ccccc2)c2cc(Cl)ccc21` [Diazepam], the “Enzyme activity (inhibition/activation)” value on AKR1C1 is reported as “inhibition”. As to `O=C(O)Cc1ccccc1Nc1c(Cl)cccc1Cl` [Diclofenac], on AKR1C1 (setting [1]), the “Enzyme activity (inhibition/activation)” value is “inhibition”. For the compound `CC/C(=C(/CC)c1ccc(O)cc1)c1ccc(O)cc1` [Diethylstilbestrol], on AKR1C1 (setting [1]), the “Enzyme activity (inhibition/activation)” value is given as “inhibition”. For the compound `CC(=O)[C@H]1CC[C@H]2[C@@H]3C=CC4=CC(=O)CC[C@@]4(C)[C@@H]3CC[C@]12C` [Dydrogesterone], at AKR1C1 (setting [1]), the “Enzyme activity (inhibition/activation)” value is “inhibition”. Turning to `C[C@]12CC[C@H]3C(=CCc4cc(O)ccc43)[C@@H]1CCC2=O` [Equilin], the “Enzyme activity (inhibition/activation)” value at AKR1C1 (setting [1]) is listed as “inhibition”. On to `Clc1ccc2c(c1)C(c1ccccc1)=NCc1nncn1-2` [Estazolam], for which, on AKR1C1 (setting [1]), the “Enzyme activity (inhibition/activation)” value is given as “inhibition”. Consider `C=C(CC)C(=O)c1ccc(OCC(=O)O)c(Cl)c1Cl` [Ethacrynic Acid], for which the “Enzyme activity (inhibition/activation)” value on AKR1C1 (setting [1]) is reported as “activation”. As for `CCc1cccc2c3c([nH]c12)C(CC)(CC(=O)O)OCC3` (centres unmarked) [Etodolac], the “Enzyme activity (inhibition/activation)” value on AKR1C1 (setting [1]) is reported as “inhibition”. As to `O=C1CC(c2ccccc2)Oc2ccccc21` (centres unmarked) [Flavanone], the “Enzyme activity (inhibition/activation)” value at AKR1C1 (setting [1]) is given as “inhibition”. As to `O=c1cc(-c2ccccc2)oc2ccccc12` [Flavone], at AKR1C1 (setting [1]), the “Enzyme activity (inhibition/activation)” value is recorded as “inhibition”.

Turning to `CN1C(=O)CN=C(c2ccccc2F)c2cc([N+](=O)[O-])ccc21` [Flunitrazepam], on AKR1C1, the “Enzyme activity (inhibition/activation)” value was “inhibition”. In the case of `O=c1c(-c2ccc(O)cc2)coc2cc(O)cc(O)c12` [Genistein], the “Enzyme activity (inhibition/activation)” value on AKR1C1 (setting [1]) was “inhibition”. Consider `CC1(C)[C@@H](O)CC[C@]2(C)[C@H]3C(=O)C=C4[C@@H]5C[C@@](C)(C(=O)O)CC[C@]5(C)CC[C@@]4(C)[C@]3(C)CC[C@@H]12` [Glycyrrhetinic Acid], for which the “Enzyme activity (inhibition/activation)” value on AKR1C1 (setting [1]) was “inhibition”.

As to `OO` [Hydrogen peroxide], at AKR1C1 (setting [1]), the “Enzyme activity (inhibition/activation)” value is reported as “activation”. Consider `CC(C)Cc1ccc(C(C)C(=O)O)cc1` (centres unmarked) [Ibuprofen], for which, at AKR1C1 (setting [1]), the “Enzyme activity (inhibition/activation)” value is “inhibition”. `COc1ccc2c(c1)c(CC(=O)O)c(C)n2C(=O)c1ccc(Cl)cc1` [Indomethacin]: the “Enzyme activity (inhibition/activation)” value at AKR1C1 (setting [1]) is listed as “inhibition”. With `O=c1c(O)c(-c2ccc(O)cc2)oc2cc(O)cc(O)c12` [Kaempferol], the “Enzyme activity (inhibition/activation)” value at AKR1C1 (setting [1]) was “inhibition”. Turning to `CC(C(=O)O)c1cccc(C(=O)c2ccccc2)c1` (centres unmarked) [Ketoprofen], on AKR1C1 (setting [1]), the “Enzyme activity (inhibition/activation)” value is recorded as “inhibition”. For the compound `O=C1C[C@@H](c2ccc(O[C@@H]3O[C@H](CO)[C@@H](O)[C@H](O)[C@H]3O)cc2)Oc2cc(O)ccc21` [Liquiritin], the “Enzyme activity (inhibition/activation)” value on AKR1C1 (setting [1]) is “inhibition”. In addition, the “kind of AKR1C1 inhibition” value at AKR1C1 is “selective and potent AKR1C1 inhibitor”. In the case of `O=c1cc(-c2ccc(O)c(O)c2)oc2cc(O)cc(O)c12` [Luteolin], the “Enzyme activity (inhibition/activation)” value on AKR1C1 (setting [1]) was “inhibition”. Turning to `Cc1ccc(Cl)c(Nc2ccccc2C(=O)O)c1Cl` [Meclofenamic Acid], the “Enzyme activity (inhibition/activation)” value on AKR1C1 (setting [1]) is given as “inhibition”. As for `CN1CCN=C(c2ccccc2)c2cc(Cl)ccc21` [Medazepam], the “Enzyme activity (inhibition/activation)” value at AKR1C1 (setting [1]) is “inhibition”. Besides, the “kind of AKR1C1 inhibition” value on AKR1C1 is “non-competitive inhibitors”. On to `CC(=O)O[C@]1(C(C)=O)CC[C@H]2[C@@H]3C[C@H](C)C4=CC(=O)CC[C@]4(C)[C@H]3CC[C@@]21C` [Medroxyprogesterone Acetate], for which, on AKR1C1 (setting [1]), the “Enzyme activity (inhibition/activation)” value is given as “inhibition”. Take `CC/C=C\CC1C(=O)CCC1CC(=O)OC` (centres unmarked) [Methyl Jasmonate]: the “Enzyme activity (inhibition/activation)” value on AKR1C1 (setting [1]) is recorded as “inhibition”.

Regarding `COc1ccc2cc([C@H](C)C(=O)O)ccc2c1` [Naproxen], on AKR1C1 (setting [1]), the “Enzyme activity (inhibition/activation)” value was “inhibition”.

In the case of `O=C1C[C@@H](c2ccc(O)cc2)Oc2cc(O)cc(O)c21` [Naringenin], the “Enzyme activity (inhibition/activation)” value on AKR1C1 (setting [1]) was “inhibition”. As for `O=C1CN=C(c2ccccc2)c2cc([N+](=O)[O-])ccc2N1` [Nitrazepam], on AKR1C1, the “Enzyme activity (inhibition/activation)” value was “inhibition”. On to `C#C[C@]1(O)CC[C@H]2[C@@H]3CCC4=CC(=O)CC[C@@H]4[C@H]3CC[C@@]21C` [Norethindrone], for which the “Enzyme activity (inhibition/activation)” value at AKR1C1 (setting [1]) is on record as “inhibition”. Regarding `CC1CN2CC(=O)Nc3ccc(Cl)cc3C2(c2ccccc2)O1` (centres unmarked) [Oxazolam], on AKR1C1 (setting [1]), the “Enzyme activity (inhibition/activation)” value is on record as “inhibition”. Consider `CC(=O)Nc1ccc(O)cc1` [Paracetamol], for which the “Enzyme activity (inhibition/activation)” value at AKR1C1 (setting [1]) is on record as “inhibition”. Turning to `O=c1c(O)c(-c2ccc(O)c(O)c2)oc2cc(O)cc(O)c12` [Quercetin], the “Enzyme activity (inhibition/activation)” value on AKR1C1 (setting [1]) was “inhibition”. For `Oc1ccc(C=Cc2cc(O)cc(O)c2)cc1` [Resveratrol], on AKR1C1 (setting [1]), the “Enzyme activity (inhibition/activation)” value is “inhibition”.

On to `CC1=C(CC(=O)O)c2cc(F)ccc2/C1=C\c1ccc([S+](C)[O-])cc1` (centres unmarked) [Sulindac], for which, on AKR1C1 (setting [1]), the “Enzyme activity (inhibition/activation)” value was “inhibition”. Take `CC(C)(C)c1cc(O)ccc1O` [T-Butylhydroquinone]: the “Enzyme activity (inhibition/activation)” value at AKR1C1 (setting [1]) is recorded as “activation”. For `CC/C(=C(\c1ccccc1)c1ccc(OCCN(C)C)cc1)c1ccccc1` [Tamoxifen], the “Enzyme activity (inhibition/activation)” value on AKR1C1 (setting [1]) was “inhibition”. For the compound `COc1c(O)cc(O)c2c(=O)cc(-c3ccccc3)oc12` [Wagonin], at AKR1C1 (setting [1]), the “Enzyme activity (inhibition/activation)” value is “inhibition”. Take `C[C@H]1CCCC(=O)CCC/C=C/c2cc(O)cc(O)c2C(=O)O1` [Zearalenone]: the “Enzyme activity (inhibition/activation)” value on AKR1C1 (setting [1]) is “inhibition”. `Cc1cc(CC(=O)O)n(C)c1C(=O)c1ccc(Cl)cc1` [Zomepirac]: the “Enzyme activity (inhibition/activation)” value on AKR1C1 (setting [1]) was “inhibition”. Take NADP(H) [NADP(H) (NPD)]: the Kd on AKR enzymes is 100 nM.

On to Sennosides, for which the “Activity (prostaglandin levels)” value with PGE2 and PGF2α levels is listed as “increase PGE2 formation”.
